# Measurements reported in article PMC12349723, “Computationally accelerated identification of P-glycoprotein inhibitors” (PLOS One, 2025).
# Key:
# [1] = Resazurin cell viability pre-screen in DU145-TXR cells with or without PTX; assay type: cell-based; details: human, mean of two experiments in triplicate, read-out: Viability, 15 µM compound alone
# Method: Culture of the DU145, DU145-TXR, and HFL1 cell lines was performed as described in [8]. Culture of the A2780 and A2780-ADR cell lines was performed as described in [9]. MTT assays were performed as described in [8] with minor modifications. LC-MS/MS accumulation assays were performed as described in {Nanayakkara, 2018 #173} [9] with some modifications. […] The inhibitor concentration was lowered to 15 µM here, as the goal of the study was to identify compounds that were effective in reversing MDR at low concentrations, and to determine if the expanded virtual-assisted methods improved on our first-draft attempt. Compounds 56–98 were pre-screened using Resazurin cell viability assays: cells were incubated with 15 µM compound with or without 500 nM PTX for 48 hours, after which cell survival was assessed similar to [39]. Data represent the mean of two separate experiments, with n = 3 samples per experiment (n = 6 total) (S4 Table). The top performing compounds from this initial screen were re-tested with MTT viability assays against DU145-TXR cells, as described below.
# S4 Table. Pre-screening of compounds 56 – 98 against DU145-TXR cells with resazurin assays. DU145-TXR cells were incubated with 15 µM compound with or without 500nM PTX for 48 hrs; survival was subsequently determined with the Resazurin viability assay ^[37]. […] Percent re-sensitization is defined as the percent change in viability between cells treated with compound and PTX, versus cells treated with PTX alone. In some instances, the assay reported an increase in viability with compound + PTX, and no percent sensitization is reported. ‘Follow-up Testing’ compounds were re-assessed with MTT assays (Figure 1). Compounds 59 and 89 (*, ‘Follow-up Testing’) were used as negative controls in follow-up MTT assays to test for consistency of results, e.g. to confirm that molecules eliminated in Resazurin assays were justifiably eliminated from later screening with MTT assays.
# [2] = SWISS-ADME computational analysis of chemical properties; details: predicted aqueous solubility compared to that observed in the laboratory
# From the text: Identifying P-gp inhibitors that are not transport substrates remains inherently challenging. To that end, computational tools such as the SWISS-ADME server attempt to use a molecule’s unique chemical and structural characteristics to predict whether it is likely to be a P-gp transport substrate. Our LC-MS/MS assays allowed us to retroactively test the validity of predictions from SWISS-ADME. […] Alternative identifiers for the molecules identified in this study are shown in S7 Table.
# S1 Table. Known P-gp Inhibitors and Predicted Chemical Properties. A non-exhaustive list of known P-gp inhibitors and their selected chemical properties ^[64, 65]. Clinical trial outcomes were adapted from ^[10, 11]. Compounds were evaluated using the SWISS-ADME server ^[54]. […] “Predicted P-gp Substrate” - predicted by SWISS-ADME to be a transport substrate of P-gp. “Known P-gp Substrate” – In addition to being P-gp inhibitors, these molecules are: known transport substrates of P-gp, known non-transport substrates of P-gp, unknown whether it is a transport substrate of P-gp ^[66-68]. If the molecule is designated in a specific generation of P-gp inhibitors - First Generation P-gp inhibitors, Second generation P-gp inhibitors, Third generation P-gp inhibitors.
# P-gp [3] = target: T1, P-gp (Homo sapiens, UniProt P08183); assay: Top Hit classification from combined in vitro criteria; details: reverse MDR, do not increase PTX toxicity in chemo-sensitive cancer cells, non-toxic to noncancerous cells, not P-gp substrates
# T1 construct: The MDR, P-gp overexpressing DU145-TXR cells were maintained under positive selection pressure; endogenous in cells; host or cells: DU145-TXR (paclitaxel-resistant sub-line of DU145 human prostate cancer cells)
# T1 sequence (P08183 whole entry): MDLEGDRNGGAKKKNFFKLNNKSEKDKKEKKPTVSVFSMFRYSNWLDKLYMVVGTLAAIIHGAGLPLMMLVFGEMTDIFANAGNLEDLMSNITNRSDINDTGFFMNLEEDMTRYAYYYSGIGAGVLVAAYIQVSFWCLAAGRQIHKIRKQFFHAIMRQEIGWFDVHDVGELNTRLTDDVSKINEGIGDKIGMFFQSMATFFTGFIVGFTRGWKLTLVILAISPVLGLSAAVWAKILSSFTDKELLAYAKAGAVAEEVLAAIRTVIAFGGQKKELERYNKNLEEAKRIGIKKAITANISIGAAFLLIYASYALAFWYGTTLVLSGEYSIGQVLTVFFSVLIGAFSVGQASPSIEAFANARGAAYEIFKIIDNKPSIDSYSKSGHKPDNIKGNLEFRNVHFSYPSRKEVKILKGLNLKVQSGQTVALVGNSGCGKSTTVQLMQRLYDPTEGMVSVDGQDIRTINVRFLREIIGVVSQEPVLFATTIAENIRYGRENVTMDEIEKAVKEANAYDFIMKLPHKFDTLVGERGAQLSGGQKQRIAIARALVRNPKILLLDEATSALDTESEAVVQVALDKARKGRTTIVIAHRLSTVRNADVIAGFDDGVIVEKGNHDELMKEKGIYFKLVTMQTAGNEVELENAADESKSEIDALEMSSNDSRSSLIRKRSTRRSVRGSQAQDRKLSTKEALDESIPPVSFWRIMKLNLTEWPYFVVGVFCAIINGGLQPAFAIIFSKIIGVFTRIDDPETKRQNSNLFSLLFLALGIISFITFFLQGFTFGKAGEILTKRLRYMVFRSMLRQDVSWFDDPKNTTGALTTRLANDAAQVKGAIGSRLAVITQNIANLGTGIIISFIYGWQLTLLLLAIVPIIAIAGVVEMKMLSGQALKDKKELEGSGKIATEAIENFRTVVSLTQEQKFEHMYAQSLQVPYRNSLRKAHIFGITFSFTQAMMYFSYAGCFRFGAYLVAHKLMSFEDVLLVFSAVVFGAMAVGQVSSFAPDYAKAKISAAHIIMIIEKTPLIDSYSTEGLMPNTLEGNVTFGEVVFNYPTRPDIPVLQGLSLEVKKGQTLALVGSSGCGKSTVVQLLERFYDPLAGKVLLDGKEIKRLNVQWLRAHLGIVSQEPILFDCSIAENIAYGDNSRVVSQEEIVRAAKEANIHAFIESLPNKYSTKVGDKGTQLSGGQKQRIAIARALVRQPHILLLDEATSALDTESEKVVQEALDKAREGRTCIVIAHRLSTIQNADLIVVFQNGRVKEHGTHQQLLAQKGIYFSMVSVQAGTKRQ
# [4] = test system: HFL1 (human lung fibroblast) cell line; assay: MTT viability assay, inherent toxicity in non-cancerous HFL1 cells; assay type: cell-based; details: HFL1 cells, compound alone, mean of 8 samples
# Method: The chemotherapeutic sensitive DU145 human prostate cancer cells and the multidrug resistant sub-line, DU145-TXR, were generous gifts from Dr. Evan Keller (University of Michigan, Ann Arbor, MI). The MDR, P-gp overexpressing DU145-TXR cells were maintained under positive selection pressure by supplementing complete medium with 10 nM paclitaxel (Acros Organics, NJ). […] The MDR, P-gp overexpressing A2780-ADR cell line was maintained under positive selection pressure by supplementing complete medium with 100 nM doxorubicin (Fisher Scientific, NJ). The non-cancerous HFL1 (human lung fibroblast) cell line cell line was a generous gift from Dr. Robert Harrod (Southern Methodist University, Dallas, TX) and was maintained in complete F12K media consisting of F12K with 10% fetal bovine serum, 100 U/mL penicillin, and 100 µg/mL streptomycin (Gibco). Flasks and 96 well plates that were used with the non-cancerous line HFL1 were pre-treated with 0.1 mg/ml Collagen Type 1 (Gibco) and rinsed with PBS (Fisher).
# MTT assays measure the reduction of yellow, water soluble 3-(4,5-dimethylthiazol-2-yl)-2,5-diphenyltetrazolium bromide (MTT) to blue, insoluble formazan crystals by cellular reductase processes in living cells. Cells were trypsinized from monolayers and seeded in complete medium in 96 well plates. Cancerous cell lines (DU145, DU145-TXR, A2780, A2780-ADR) were seeded at 3,000 cells per well in complete RPMI medium. The non-cancerous HFL1 line was seeded at 4,000 cells per well in complete F12K medium, in collagen-treated plates (Collagen Type 1, Gibco). Cells were incubated with experimental compounds for 48 hours at 37 °C and 5% CO2 in a humidified incubator. At 48 hours, MTT was added (20 µL/well of 5 mg/mL MTT in PBS) to each well. After incubation for 4 hours, the media was removed, and the formazan crystals were dissolved in 100 µL DMSO per well. Plates containing the semi-adherent A2780 or A2780-ADR lines were spun at 1400 rpm for 3 minutes prior to aspiration of media, and the addition of DMSO. Plates were shaken for 10 minutes at 500 rpm on an Orbital shaker (LabDoctor from MidSci, St Louis, MO). The absorbance was measured at 570 nm using a Bio-Tek Cytation 5 (Bio-Tek, Winooski, VT). The measured absorbance value was correlated with the number of metabolically active cells in that well, corrected for absorbance of media. The percent of cell viability (termed ‘survival’ here) was calculated as a percentage of survival of the control condition, which refers to vehicle-treated (DMSO as vehicle) cells, or vehicle-and-chemotherapeutic-treated cells, if testing a compound’s ability to re-sensitize cells to a chemotherapeutic. Percent survival was calculated using the following equation:
# % Survival=100 × absorbance of experimental cells/mean absorbance of control treated cells
# For DU145-TXR, DU145, HFL1 and A2780 cells – data are the mean ± one standard deviation, 8 samples per compound, from at least two independent trials per compound. […] For A2780-ADR cells, data are the mean ± one standard deviation with 12 samples per compound, from at least two independent trials per compound.
# If a P-gp inhibitor is intrinsically toxic to non-cancerous cells, it is more likely to be participating in undesirable off-target interactions. The top compounds from the screens shown above were screened for inherent toxicity using the non-cancerous HFL1 (human lung fibroblast) cell line. HFL1 cells were incubated with 15 µM compound for 48 hours, after which cell viability was assessed using MTT cell viability assays. A 20% reduction in cell viability (compared to DMSO-treated cells) was considered the maximum acceptable toxicity (see dotted line). The chemotherapeutic daunorubicin was included as a positive control for toxicity.
# The top compounds from previous screens were tested against the non-cancerous HFL1 cell line.
# P-gp [5] = target: T1, P-gp; assay: LC-MS/MS intracellular accumulation assay with or without tariquidar (P-gp transport substrate test) in DU145-TXR cells; assay type: in vitro ADME
# Method: DU145-TXR cells were seeded at 350,000 cells per well in 6-well plates in complete RPMI medium. […] A full sample of DAU was also prepared for quantitative analysis. […] Media was removed with a glass vacuum aspirator. Cells were re-suspended and washed in 2mL of ice-cold Hank’s Balanced Salt Solution (HBSS, Gibco), and spun again at 2400 rpm. Cell lysates were diluted in 600 µL of ice-cold HBSS, flash-frozen in liquid nitrogen, and stored at −80 °C until analysis. LC-MS/MS intracellular accumulation assays were performed in collaboration with the Pharmacology Core at the University of Texas Southwestern Medical Center (UTSW). […] This method allowed us to quantify the change – if any – in the relative amount of compound present in the samples when TQR was added. An increase in the relative amount of compound indicates enhanced intracellular retention that compound. […] The “Internal Standard” (IS) is a known substance added in a constant amount to each sample. The “Peak Area”, expressed as “counts”, describes the number of MS/MS spectra from the experimental compound and serves as a measure of its relative abundance. […] These values allow a comparison of the relative abundance of compound between the “- TQR” and “+ TQR” samples, and to test for statistically significant differences. LC-MS/MS quantification was performed as follows. Cell lysate was aliquoted into Eppendorf tubes. In contrast to [9], blank cell lysates were not spiked with varying concentrations of each compound to create a standard curve, since compound amounts were normalized to abundance of the internal standard. […] The supernatant was then transferred to an HPCL vial, and subsequently analyzed using LC-MS/MS using a Sciex 4000QTRAP mass spectrometer coupled to a Shimadzu Prominence LC. […] The column flow rate was 1.5 ml/min using an Agilent C18 XDB, 5 micron packing 50 × 4.6 mm column. […] A BSA standard curve was then prepared in water and mixed using the same ratio. […] The ratio of Analyte to Internal Standard was normalized to the lysate content for each individual sample. […] Statistical significance was determined using a Student’s T Test in GraphPad Prism. We aimed to identify P-gp inhibitors that are not transport substrates of the pump itself. […] To test these predictions in vitro, liquid chromatography with tandem mass spectrometry (LC-MS/MS) was used to assess the intracellular accumulation of experimental compounds as described in [9]. […] The relative intracellular accumulation of each experimental compound was then assessed using LC-MS/MS. […] The P-gp substrate and chemotherapeutic daunorubicin (DAU) was used as a positive control for P-gp-mediated transport.
# DU145-TXR cells = details: cited from earlier work
# DU145 cells = test system: DU145 cells; design: method as in PMID 26516582; details: ref [8]; cited from earlier work
# P-gp [6] = test system: P-gp; design: method as in earlier work; details: ref [66-68]; cited from earlier work
# [7] = DU145-TXR, 5 µM compound, 2.5 h, with 500 nM tariquidar, mean ± SD, triplicate
# [8] = DU145-TXR, 5 µM compound, 2.5 h, without tariquidar, mean ± SD, triplicate
# [9] = significant difference = likely P-gp transport substrate
smiles,measurement,setting,value
"Cc1cccc(C2CC(=O)c3cnn(-c4nc5ccccc5[nH]4)c3C2)c1 (stereo not shown) [Compound 79, Cc1cccc(c1)C1Cc2c(cnn2-c2nc3ccccc3[nH]2)C(=O)C1]","viability at 48 h, 15 µM",[1],89.9%
same,Correct Water Solubility Prediction?,[2],Yes
same,Top Hit,P-gp [3],No
"COc1cccc2c1C(=O)c1c(O)c3c(c(O)c1C2=O)C[C@@](O)(C(C)=O)C[C@@H]3O[C@H]1C[C@H](N)[C@H](O)[C@H](C)O1 [Daunorubicin, reference compound]",Mean % Survival,[4],18.1%
same,"Intracellular accumulation (normalized ratio of compound to internal standard), Trial 1, + TQR",P-gp [5]; [7],0.216 ± 0.002
same,"Intracellular accumulation (normalized ratio of compound to internal standard), Trial 2, + TQR",P-gp [5]; [7],0.232 ± 0.016
same,"Intracellular accumulation (normalized ratio of compound to internal standard), Trial 1, - TQR",P-gp [5]; [8],0.014 ± 0.001
same,"Intracellular accumulation (normalized ratio of compound to internal standard), Trial 2, - TQR",P-gp [5]; [8],0.017 ± 0.001
same,"P (- TQR vs + TQR), Trial 2",P-gp [5]; Student's T test of the mean,2x10^-5
same,"P (- TQR vs + TQR), Trial 1","P-gp [5]; Student's T test of the mean, listed as DAU",< 1x10^-6
same,"Significance of accumulation with tariquidar, Trial 1",P-gp [5]; [9],**** (P < 0.0001 = ****)
same,"Significance of accumulation with tariquidar, Trial 2",P-gp [5]; [9],**** (P < 0.0001 = ****)
"CC(=O)O[C@H]1C(=O)[C@@]2(C)[C@H]([C@H](OC(=O)c3ccccc3)[C@]3(O)C[C@H](OC(=O)[C@H](O)[C@@H](NC(=O)c4ccccc4)c4ccccc4)C(C)=C1C3(C)C)[C@]1(OC(C)=O)CO[C@@H]1C[C@@H]2O [Paclitaxel, paclitaxel]",Survival of DU145-TXR cells at 500 nmol/L PTX,"DU145-TXR cells; 500 nmol/L PTX, ref [8]",greater than 85%
same,Increase in the IC50 of PTX in DU145-TXR relative to DU145 cells,"DU145-TXR cells; DU145-TXR vs DU145 parental cells, ref [38]",34 fold
same,Survival of DU145 parental cells at 500 nmol/L PTX,DU145 cells,less than 10%
C=C[C@H]1C[N@@]2CC[C@H]1C[C@@H]2[C@@H](O)c1ccnc2ccc(OC)cc12 [Quinidine],P-gp Substrate? (known transport substrate of P-gp),P-gp [6],Yes
COC(=O)[C@H]1[C@H]2C[C@@H]3c4[nH]c5cc(OC)ccc5c4CCN3C[C@H]2C[C@@H](OC(=O)c2cc(OC)c(OC)c(OC)c2)[C@@H]1OC [Reserpine],P-gp Substrate? (known transport substrate of P-gp),P-gp [6],No
C/C=C/C[C@@H](C)C(=O)[C@H]1C(=O)N[C@@H](C(C)C)C(=O)N(C)CC(=O)N(C)[C@@H](CC(C)C)C(=O)N[C@@H](C(C)C)C(=O)N(C)[C@@H](CC(C)C)C(=O)N[C@@H](C)C(=O)N[C@H](C)C(=O)N(C)[C@@H](CC(C)C)C(=O)N(C)[C@@H](CC(C)C)C(=O)N(C)[C@@H](C(C)C)C(=O)N1C [Valspodar],P-gp Substrate? (known transport substrate of P-gp),P-gp [6],No
O[C@@H](COc1cccc2ncccc12)CN1CCN([C@@H]2c3ccccc3[C@@H]3[C@H](c4ccccc42)C3(F)F)CC1 [Zosuquidar],P-gp Substrate? (known transport substrate of P-gp),P-gp [6],Yes
